Assay results: patent US20240203290A1, “VITRO MODEL DEVICE FOR CORNEA BARRIER” (CFD Research Corporation, priority 2022, published 2024)

Tests used:
Assay type in all cases: cell-based
[1] = test system: corneal barrier of the microfluidic in vitro cornea device (epithelial, fibroblast, endothelial triculture); experiment: FSS permeability of the in vitro cornea device after trypan blue exposure; conditions: trypan blue injected into TFEp channel at 3 μL/min for 4 min, incubated at 37° C. for 15 min; then FSS injected into TFEp channel
Procedure: (§1) In some embodiments, all channels of the device can be coated with human fibronectin to facilitate cellular attachment. For example, primary human corneal fibroblasts can be seeded on Day 0. Fibroblasts can be harvested, concentrated to 1×10^7 cells/mL and injected into the stromal chamber via a remote head syringe pump at 5 μL/min until cells are homogenously distributed. Devices can then be incubated at 37° C., 5% CO2 for 4 hours to allow for attachment. Media can be subsequently refreshed every 24 hours. Primary human corneal epithelial cells can be seeded into the TFEp circulation channel on Day 3. […]
(§2) Viability can be assessed on-chip as an endpoint for epithelial, fibroblast, and endothelial cells. Devices are prepared for viability quantitation by incubation with calcein AM and ethidium homodimer in PBS. After rinsing the cells with PBS, fluorescent images are taken via microscope, and the data was analyzed to determine cornea triculture viability (sec, FIG. 5A). […]
Following exposure, FSS can be injected into the TFEp channel and permeability assayed. […] Samples can be taken from cell-laden channels (individually or combined) and placed in a low volume, white walled […] plate for luminescence analysis using a plate reader. […] The increase in AK release in arbitrary luminescence units compares the toxic exposure of trypan blue to positive and negative controls. […]

[2] = test system: cells of the microfluidic in vitro cornea device; experiment: Cytotoxicity by adenylate kinase release (luminescence) from cell-laden channels; conditions: trypan blue exposure; compared with positive control (lysis buffer) and negative control (media only)
Procedure: as §1, §2
Following exposure, FSS can be injected into the TFEp channel and permeability assayed. […] Samples can be taken from cell-laden channels (individually or combined) and placed in a low volume, white walled […] plate for luminescence analysis using a plate reader. […] The increase in AK release in arbitrary luminescence units compares the toxic exposure of trypan blue to positive and negative controls.

[3] = test system: corneal barrier of the microfluidic in vitro cornea device; experiment: Morphological observation of the chambers after trypan blue exposure; conditions: trypan blue injected into TFEp channel at 3 μL/min for 4 min, incubated at 37° C. for 15 min; observed at any chamber

Cc1cc(-c2ccc(/N=N/c3c(S(=O)(=O)O)cc4cc(S(=O)(=O)O)cc(N)c4c3O)c(C)c2)ccc1/N=N/c1c(S(=O)(=O)O)cc2cc(S(=O)(=O)O)cc(N)c2c1O [trypan blue]
Permeability in trypan blue treated devices compared to controls [1]: 10 fold | Increase in adenylate kinase release [2]: 1.5 fold | Morphological effects of exposure [3]: evidence of barrier degradation (e.g., cell death and detachment) and apoptosis
